Values after ≈ are worked out from the molar mass of the structure shown. Like-named read-outs stand apart in the source and are kept apart here.
What was measured:
[1] = tested on: Klebsiella pneumoniae ATCC 700603; assay: Serum MIC, broth micro-dilution; type: cell-based; conditions: Klebsiella pneumoniae, ATCC700603; 50% v/v mouse serum in Mueller Hinton II cation adjusted Broth, 35° C., 22 hours; Table 4; read-out: K pneumoniae 700603 Serum MIC
Method in brief: (§1)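 CLSI broth microdilution in 50% cation-adjusted Mueller Hinton II broth plus 50% mouse serum. Inoculum at final OD600 0.0005. Two-fold serial dilutions (10 concentrations) starting at 64, 4, 0.5 or 0.13 μg/mL. Incubated 22 h at 35 °C.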

[2] = tested on: Acinetobacter baumannii ATCC 17978; assay: Serum MIC, broth micro-dilution; type: cell-based; conditions: Acinetobacter baumannii, ATCC17978, 50% v/v mouse serum in Mueller Hinton II cation adjusted Broth, 35° C., 22 hours
Method in brief: as §1

[3] = tested on: Escherichia coli strain ATCC 25922; assay: Serum MIC, broth micro-dilution; type: cell-based; conditions: Escherichia coli, ATCC25922; 50% v/v mouse serum in Mueller Hinton II cation adjusted Broth, 35° C., 22 hours; Table 4; read-out: E. coli 25922 Serum MIC
Method in brief: as §1

[4] = tested on: Pseudomonas aeruginosa PA01; assay: Serum MIC, broth micro-dilution; type: cell-based; conditions: Pseudomonas aeruginosa, PA01; 50% v/v mouse serum in Mueller Hinton II cation adjusted Broth, 35° C., 22 hours; Table 4; read-out: P. aeruginosa 01 Serum MIC
Method in brief: as §1

[5] = tested on: isolated liver mitochondria; assay: Mitochondrial oxygen consumption rate (OCR) assay; type: biochemical, Sprague-Dawley rats; conditions: isolated rat liver mitochondria, state 3 (S3) respiration, glutamate/malate; Table 3
Method in brief: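 Liver mitochondria from male Sprague-Dawley rats preincubated with compounds 1 h on ice (1% DMSO, pH 7.4 buffer), then given glutamate/malate with TTFA (plus ADP for state 3) and phosphorescent O2 probe. Oxygen consumption read 30 min at 30 °C. IC50 (50 μg protein, S3) or UC50 (100 μg, S2) derived from AUC.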

[6] = Table 4, read-out: A. baumanii 17978 Serum MIC
[7] = Table 5, read-out: Acinetobacter baumanii 17978 Serum MIC

| MIC [1] | MIC [2, 6] | MIC [2, 7] | MIC [3] | MIC [4] | IC50 [5] | SMILES |
| --- | --- | --- | --- | --- | --- | --- |
| 0.75 µM (≈ 0.765 µg/mL) | 12 µM (≈ 12.2 µg/mL) | 12 µM (≈ 12.2 µg/mL) | 0.75 µM (≈ 0.765 µg/mL) | 6 µM (≈ 6.12 µg/mL) | 69 µM | Cc1nc(-c2ccc3c(c2)CCC3(C)C)nc(N)c1C(=O)N[C@@H](CNS(N)(=O)=O)C(=O)N(C)[C@@H]1C(=O)N[C@@H](C)C(=O)N[C@H](C(=O)O)Cc2ccc(OC[C@H](O)CN)c(c2)-c2cc1cc(OC[C@H](O)CN)c2O [Example 66, (8S,11S,14S)-14-[[(2S)-2-[[4-amino-2-(1,1-dimethylindan-5-yl)-6-methyl-pyrimidine-5-carbonyl]-amino]-3-(sulfamoyl-amino)propanoyl]-methyl-amino]-3,17-bis[(2R)-3-amino-2-hydroxy-propoxy]-18-hydroxy-11-methyl-10,13-dioxo-9,12-diazatricyclo-[13.3.1.12,6]icosa-1(18),2(20),3,5,15(19), 16-hexaene-8-carboxylic acid] |
| 0.38 µM (≈ 0.397 µg/mL) | 4 µM (≈ 4.18 µg/mL) | 4 µM (≈ 4.18 µg/mL) | 0.25 µM (≈ 0.261 µg/mL) | 6 µM (≈ 6.26 µg/mL) | 44 µM | C[C@@H]1NC(=O)[C@@H](N(C)C(=O)[C@H](CNS(N)(=O)=O)NC(=O)c2c(N)nc(-c3ccc(C(C)(C)C)cc3)nc2C(F)F)c2cc(OC[C@H](O)CN)c(O)c(c2)-c2cc(ccc2OC[C@H](O)CN)C[C@@H](C(=O)O)NC1=O [Example 69, (8S,11S,14S)-14-[[(2S)-2-[[4-amino-2-(4-tert-butylphenyl)-6-(difluoromethyl)-pyrimidine-5-carbonyl]amino]-3-(sulfamoylamino)-propanoyl]-methyl-amino]-3,17-bis[(2R)-3-amino-2-hydroxy-propoxy]-18-hydroxy-11-methyl-10,13-dioxo-9,12-diazatri-cyclo[13.3.1.12,6]icosa-1(18),2(20),3,5,15(19), 16-hexaene-8-carboxylic acid] |
| 1 µM (≈ 1.04 µg/mL) | 16 µM (≈ 16.6 µg/mL) | 16 µM (≈ 16.6 µg/mL) | 0.5 µM (≈ 0.518 µg/mL) | 4 µM (≈ 4.14 µg/mL) | 48 µM | Cc1nc(-c2ccc3c(c2O)CCC3(C)C)nc(N)c1C(=O)N[C@@H](CNS(N)(=O)=O)C(=O)N(C)[C@@H]1C(=O)N[C@@H](C)C(=O)N[C@H](C(=O)O)Cc2ccc(OC[C@H](O)CN)c(c2)-c2cc1cc(OC[C@H](O)CN)c2O [Example 70, (8S,11S,14S)-18-hydroxy-11-methyl-14-[methyl-[(2S)-2-[[4-amino-2-(4-hydroxy-1,1-dimethyl-indan-5-yl)-6-methyl-pyrimidine-5-carbonyl]-amino]-3-(sulfamoyl-amino)propanoyl]-amino]-10,13-dioxo-3,17-bis[(2R)-3-amino-2-hydroxy-propoxy]-9,12-diazatricyclo-[13.3.1.12,6]icosa-1(18),2(20),3,5,15(19), 16-hexaene-8-carboxylic acid] |
| 0.31 µM (≈ 0.317 µg/mL) | 14 µM (≈ 14.3 µg/mL) | 14 µM (≈ 14.3 µg/mL) | 0.5 µM (≈ 0.511 µg/mL) | 8 µM (≈ 8.18 µg/mL) | > 200 µM | Cc1nc(-c2ccc(C(C)(C)C)cc2)nc(CN)c1C(=O)N[C@@H](CNS(N)(=O)=O)C(=O)N(C)[C@@H]1C(=O)N[C@@H](C)C(=O)N[C@H](C(=O)O)Cc2ccc(OC[C@H](O)CN)c(c2)-c2cc1cc(OC[C@H](O)CN)c2O [Example 72, (8S,11S,14S)-3,17-bis[(2R)-3-amino-2-hydroxy-propoxy]-14-[[(2S)-2-[[4-(amino-methyl)-2-(4-tert-butylphenyl)-6-methyl-pyrimidine-5-carbonyl]amino]-3-(sulfamoylamino)-propanoyl]-methyl-amino]-18-hydroxy-11-methyl-10,13-dioxo-9,12-diazatri-cyclo[13.3.1.12,6]icosa-1(18),2(20),3,5,15(19), 16-hexaene-8-carboxylic acid] |
